Reference: US10266527B2, “T-box riboswitch-binding anti-bacterial compounds” (THE RESEARCH FOUNDATION FOR THE STATE UNIVERSITY OF NEW YORK, priority 2013, dated 2019)
≈ marks a conversion by molar mass, not a printed value. Entries after “also recorded” stand apart in the source; their conditions may differ. Like-named read-outs stand apart in the source and are kept apart here.

Assays:
Assay type in all cases: cell-based
B. cereus ATCC 7064 [1] = assay: Broth microdilution MIC; conditions: for MIC: B. cereus ATCC 7064; for growth inhibition of B. cereus (in words): at moderate concentrations
[2] = test system: Human Embryonic Kidney (HEK293) cells; assay: Toxicity on a monolayer of HEK293 cells
S. pneumoniae ATCC 49619 = assay: Broth microdilution MIC; conditions: for MIC: S. pneumoniae ATCC 49619; for growth inhibition of S. pneumoniae (in words): at moderate concentrations
B. subtilis BGSC 1A1 [3] = assay: MBC determination
Method: (§1) Following 24 h incubation of these subcultures at 37° C., MBC values were recorded as the lowest compound concentration at which no viable colonies were observed.

E. coli ATCC 25922 [4] = assay: MBC determination; conditions: E. coli ATCC 25922
Method: as §1

E. faecalis ATCC 29212 [5] = assay: MBC determination; conditions: N/O = not observed
Method: as §1

B. cereus ATCC 7064 [6] = assay: MBC determination
Method: as §1

E. faecalis ATCC 29212 [7] = assay: Broth microdilution MIC
S. aureus ATCC 29213 [8] = assay: MBC determination; conditions: S. aureus ATCC 29213; N/O = not observed
Source text: (§2) The identity and purity of both PKZ 6 and 18 was confirmed by mass spectroscopy. Forty commercially available compounds chosen on the basis of initial in silico selections and similarity to our two hits were screened by disc diffusion assay (DDA) to determine their relative antibacterial activity with S. aureus. […] These 14 compounds were further evaluated by minimum inhibitory concentration assays (MIC)^41,42, and minimum bactericidal assays (MBC)^41 to confirm antibacterial activity, determine the concentration at which S. aureus growth is inhibited in liquid culture (MIC) and if they are acting as bacteriostatic or bactericidal agents (MBC). […] Representative embodiments are shown below.
as §1

P. aeruginosa ATCC 27853 [9] = assay: Broth microdilution MIC; conditions: N/O = not observed
B. subtilis BGSC 1A1 [10] = assay: Broth microdilution MIC; conditions: for MIC: B. subtilis BGSC 1A1, 20 h at 37° C.
Method: (§3) Broth microdilution assays^77, 78 were performed with B. subtilis, and S. aureus to determine the lowest compound concentration inhibiting visible growth, i.e., minimum inhibitory concentration (MIC) of the 4 original compounds. […] The insolubility of the fourth compound may account for its lack of antibacterial activity. […] The MICs of each compound are moderate.
(§4) Strains were grown on trypticase soy agar (TSA) with 5% sheep blood at 37° C. for 24 hours. Five isolated colonies were used to inoculate 5 mL cation-adjusted Mueller-Hinton broth (CAMHB) contained in a 50 mL centrifuge tube. The resulting culture was incubated shaking at 200 rpm for 3 hours at 37° C. and then diluted in CAMHB until its turbidity matched that of a 0.5 McFarland standard (OD625 0.08-0.10). After the culture had been standardized against a 0.5 McFarland standard, it was diluted 1:10 in CAMHB and then 5 μL of this dilution was added to the appropriate wells of a 96-well, flat-bottomed tissue culture plate in which each row contained a twofold dilution series of a particular compound ranging in concentration from 0.25 μg/mL to 512 μg/mL. Each plate also included a sterility control well containing CAMHB to which standardized inoculum was not added and a growth control well containing CAMHB to which 5 μL standardized inoculum was added. […] With the exception of the sterility control well, all wells were inoculated within 15 minutes of inoculum preparation to ensure that the starting concentration of bacteria in each well was approximately 5×10^5 CFU/m L. A Tecan Sunrise microplate absorbance reader was used to measure the OD620 of each well before and after 20 h incubation at 37° C. MIC values were recorded as the lowest compound concentration at which no visible growth was observed after this incubation period.

B. subtilis = assay: Disc diffusion assay, growth inhibition of B. subtilis; conditions: Table 1, ✓ = zone of inhibition observed
Source text: The same 20 top binders and 8 additional predicted to interact with the cleft of the tyrRS mRNA Specifier Loop were selected from subsequent docking and preliminary fluorescence data.

E. coli ATCC 25922 [11] = assay: Broth microdilution MIC (Gram negative specificity control); conditions: for antibacterial activity against E. coli (in words): E. coli negative control without T-box riboswitch; for MIC: E. coli ATCC 25922, N/O = not observed
S. aureus ATCC 29213 [12] = assay: Broth microdilution MIC; conditions: for MIC: S. aureus ATCC 29213, N/O = not observed
Source text: as §2, §3, §4

P. aeruginosa ATCC 27853 [13] = assay: MBC determination
Method: as §1

[14] = Bacillus cereus, ATCC7064, read-out: MIC
[15] = Streptococcus pneumoniae, ATCC49619, read-out: MIC
[16] = Escherichia coli, ATCC25922, read-out: MBC
[17] = Bacillus cereus, ATCC7064, N/O = not observed, read-out: MBC
[18] = Enterococcus faecalis, ATCC29212, N/O = not observed, read-out: MIC
[19] = Bacillus subtilis, BGSC1A1, read-out: MIC
[20] = Escherichia coli, ATCC25922, read-out: MIC
[21] = Staphylococcus aureus, ATCC29213, read-out: MIC

| Molecule | MIC (B. cereus ATCC 7064 [1]; [14]) | 16 hr post exposure % Live ([2]; 32 ug/ml) | 16 hr post exposure Morphology ([2]; 32 ug/ml) | 24 hr post exposure % Confluent ([2]; 32 ug/ml) | 24 hr post exposure % Live ([2]; 32 ug/ml) | 16 hr post exposure % Live ([2]; 64 ug/ml) | 16 hr post exposure Morphology ([2]; 64 ug/ml) | 24 hr post exposure % Confluent ([2]; 64 ug/ml) | 24 hr post exposure % Live ([2]; 64 ug/ml) | 24 hr post exposure Morphology ([2]; 64 ug/ml) | 16 hr post exposure % Live ([2]; 128 ug/ml) | 16 hr post exposure Morphology ([2]; 128 ug/ml) | 24 hr post exposure % Confluent ([2]; 128 ug/ml) | 24 hr post exposure % Live ([2]; 128 ug/ml) | 24 hr post exposure Morphology ([2]; 128 ug/ml) | MIC (S. pneumoniae ATCC 49619; [15]) | MBC (B. subtilis BGSC 1A1 [3]; IND = indeterminate) | MBC (E. faecalis ATCC 29212 [5]) | MBC (S. aureus ATCC 29213 [8]) | MIC (P. aeruginosa ATCC 27853 [9]) | further results |
| --- | --- | --- | --- | --- | --- | --- | --- | --- | --- | --- | --- | --- | --- | --- | --- | --- | --- | --- | --- | --- | --- |
| O=C(NCCN1CCNCC1)c1c(O)c2cccc3c2n(c1=O)CCC3 [Compound 6] | 128 µg/mL (≈ 359 µM) | 100% | Normal | 50% | 70% | 60% | Mix of Normal and Detached | 15% | 25% | Mix of Normal and Detached | 0% | Rounded and Detached | 0% | 0% | Rounded and Detached | 64 µg/mL (≈ 180 µM) | IND | N/O | N/O | N/O (N/D) | growth inhibition of B. cereus (in words) (B. cereus ATCC 7064 [1]): inhibited growth; growth inhibition of S. pneumoniae (in words) (S. pneumoniae ATCC 49619): inhibited growth; MBC (E. coli ATCC 25922 [4]; [16]): 256 µg/mL (≈ 718 µM); MBC (B. cereus ATCC 7064 [6]; [17]): 256 µg/mL (≈ 718 µM); MIC (E. faecalis ATCC 29212 [7]; [18]): 128 µg/mL (≈ 359 µM); antibacterial activity against B. subtilis (in words) (B. subtilis BGSC 1A1 [10]): active; MIC (B. subtilis BGSC 1A1 [10]; [19]): 32 µg/mL (≈ 89.8 µM); antibacterial activity against B. subtilis (in words) (B. subtilis BGSC 1A1 [10]; listed as PKZ 6): inhibited growth; ZOI observed (B. subtilis): ✓; antibacterial activity against E. coli (in words) (E. coli ATCC 25922 [11]): moderate antibacterial activity; MIC (E. coli ATCC 25922 [11]; [20]): 256 µg/mL (≈ 718 µM); antibacterial activity against S. aureus (in words) (S. aureus ATCC 29213 [12]): displayed antibacterial properties; MIC (S. aureus ATCC 29213 [12]; [21]): 256 µg/mL (≈ 718 µM); antibacterial activity against S. aureus (in words) (S. aureus ATCC 29213 [12]; listed as PKZ 6): inhibited growth |
| CCn1c(=O)c(C(=O)NCCN2CCNCC2)c(O)c2ccccc21 [Compound 7] | 512 µg/mL (≈ 1490 µM) | 100% | Normal | 90% | 90% | 80% | Mix of Normal and Detached | 80% | 75% | Mix of Normal and Detached | 0% | Rounded and Detached | 0% | 0% | Rounded and Detached | 128 µg/mL (≈ 372 µM) | IND | N/O | – | N/O (N/D) | 24 hr post exposure Morphology ([2]; 32 ug/ml): Normal; MBC (E. coli ATCC 25922 [4]; [16]): 512 µg/mL (≈ 1490 µM); MBC (B. cereus ATCC 7064 [6]; N/O = not observed): N/O; MIC (E. faecalis ATCC 29212 [7]; [18]): 512 µg/mL (≈ 1490 µM); antibacterial activity against B. subtilis (in words) (B. subtilis BGSC 1A1 [10]): active; MIC (B. subtilis BGSC 1A1 [10]; [19]): 32 µg/mL (≈ 92.9 µM); ZOI observed (B. subtilis): ✓; antibacterial activity against E. coli (in words) (E. coli ATCC 25922 [11]): moderate antibacterial activity; MIC (E. coli ATCC 25922 [11]; [20]): 512 µg/mL (≈ 1490 µM); MIC (S. aureus ATCC 29213 [12]): N/O (N/D) |
| Cc1sc(NC(=O)C2C3CCC(C3)C2C(=O)O)nc1-c1ccc(C(C)C)cc1 (centres unmarked) [Compound 18] | 64 µg/mL (≈ 161 µM) | 100% | Normal | 90% | 100% | 100% | Normal | 90% | 90% | Mix of Normal and Detached | 100% | Normal | 15% | 15% | Rounded and Detached | 64 µg/mL (≈ 161 µM) | – | – | N/O | N/O (N/D) | growth inhibition of B. cereus (in words) (B. cereus ATCC 7064 [1]): inhibited growth; 24 hr post exposure Morphology ([2]; 32 ug/ml): Normal; growth inhibition of S. pneumoniae (in words) (S. pneumoniae ATCC 49619): inhibited growth; MBC (B. subtilis BGSC 1A1 [3]; Bacillus subtilis, BGSC1A1, IND = indeterminate, read-out: MBC): 64 µg/mL (≈ 161 µM); MBC (B. cereus ATCC 7064 [6]; [17]): 64 µg/mL (≈ 161 µM); MIC (E. faecalis ATCC 29212 [7]; N/O = not observed): N/O (N/D); antibacterial activity against B. subtilis (in words) (B. subtilis BGSC 1A1 [10]): inhibited growth; also recorded: active; MIC (B. subtilis BGSC 1A1 [10]; [19]): 64 µg/mL (≈ 161 µM); ZOI observed (B. subtilis): ✓; MIC (E. coli ATCC 25922 [11]): N/O (N/D); antibacterial activity against E. coli (in words) (E. coli ATCC 25922 [11]): did not inhibit growth; antibacterial activity against S. aureus (in words) (S. aureus ATCC 29213 [12]): inhibited growth; also recorded: displayed antibacterial properties; MIC (S. aureus ATCC 29213 [12]; [21]): 64 µg/mL (≈ 161 µM) |
| Gentamicin [reference compound] | – | – | – | – | – | – | – | – | – | – | – | – | – | – | – | – | 0.25 µg/mL | 32 µg/mL | 8 µg/mL | 1 µg/mL | MIC (B. cereus ATCC 7064 [1]): 1 µg/mL; MIC (S. pneumoniae ATCC 49619): 4 (N/D) μg/mL; MBC (P. aeruginosa ATCC 27853 [13]): 4 µg/mL; MBC (E. coli ATCC 25922 [4]): 1 µg/mL; MBC (B. cereus ATCC 7064 [6]; N/O = not observed): 2 µg/mL; MIC (E. faecalis ATCC 29212 [7]; N/O = not observed): 8 µg/mL; MIC (B. subtilis BGSC 1A1 [10]): 0.125 µg/mL; MIC (E. coli ATCC 25922 [11]): 1 µg/mL; MIC (S. aureus ATCC 29213 [12]): 0.5 µg/mL |
